Assay results taken from patent US20230126711A1, “ENTERIC NITRERGIC NEURONS AND METHODS OF USING THE SAME” (The Regents of the University of California, priority 2020, published 2023).

System: NOS1
Test: Percentage of NO neurons in treated cultures by flow cytometry for NOS1
Assay type: cell-based, human
Conditions: flow cytometry for NOS1, compared to no treatment
Description: NO neurons quantified using flow cytometry for NOS1.
Option 1 (for 3-D Culture): • 30. On day 15, ENC spheroids are gathered in the center of the wells using a swirling motion and neural crest medium is removed using a P1000 micropipette in slow circular motion, avoiding the free-floating spheroids. • 31. Spheroids are fed with the same volume of ENC medium containing PP121 (1-5 μM), GDNF (10 ng/ml), ascorbic acid (100 μM), N2 supplement (10 μl/ml), B27 supplement (20 μl/ml), glutagro (10 μl/ml), and MEM NEAAs (10 μl/ml) in neurobasal medium. • 32. Cells are fed with ENC every other day until day 30-40, after which, feeding frequency can be reduced to once or twice a week but with a higher volume of medium.
Option 2 (for 2-D Culture): • 30. On day 15, ENC spheroids are gathered in the center of the wells using a swirling motion and neural crest medium is removed using a P1000 micropipette in slow circular motion, avoiding the free-floating spheroids. • 31. After washing the spheroids with PBS, accutase is added and plates are incubated for 30 minutes at 37° C. to dissociate the spheroids. • 32. Then, remaining spheroids are broken by pipetting ENC medium. • 33. ENC contains PP121 (1-5 μM), GDNF (10 ng/ml), ascorbic acid (100 μM), N2 supplement (10 μl/ml), B27 supplement (20 μl/ml), glutagro (10 μl/ml), and MEM NEAAs (10 μl/ml) in neurobasal medium. • 34. […]

Row | Compound | percentage of NO neurons (NOS1 induction)
1 | Nc1ncnc2c1c(-c1cnc3[nH]ccc3c1)nn2C1CCCC1 [PP121] | enhances NOS1 induction efficiency
2 | PDGF | reduced the percentage of NO neurons
